Measured values published in paper PMC6151385, “Simultaneous Determination of Seven Phenolic Acids in Rat Plasma Using UHPLC-ESI-MS/MS after Oral Administration of Echinacea purpurea Extract” (Molecules : A Journal of Synthetic Chemistry and Natural …, 2017).

Assay: Stability of the analytes in rat plasma QC samples under different storage conditions
Format: physicochemical
Conditions: post-preparation samples, high QC, 12 h at 4 °C, n = 6
Protocol: The post-preparation samples were analyzed after storage for 12 h at 4 °C. The peak area ratio response of stability samples was determined and versus those freshly prepared. For all stability results, the analyzing samples were considered stable when the percentage of relative error (RE) was within ±15% compared with freshly prepared QC samples.

Compound	Stability (RE%) Post-Preparative
COc1cc(/C=C/C(=O)O)ccc1O [Ferulic acid, ferulic acid]	−4.91%
COc1cc(C(=O)O)cc(OC)c1O [Syringic acid, syringic acid]	−6.08%
COc1cc(C(=O)O)ccc1O [Vanillic acid, vanillic acid]	−8.03%
O=C(O)/C=C/c1ccc(O)cc1 [p-Coumaric acid, p-coumaric acid]	7.12%

Same assay, conditions: post-preparation samples, low QC, 12 h at 4 °C, n = 6

Compound	Stability (RE%) Post-Preparative
COc1cc(/C=C/C(=O)O)ccc1O [Ferulic acid, ferulic acid]	−0.89%
COc1cc(C(=O)O)cc(OC)c1O [Syringic acid, syringic acid]	−10.74%
COc1cc(C(=O)O)ccc1O [Vanillic acid, vanillic acid]	9.11%
O=C(O)/C=C/c1ccc(O)cc1 [p-Coumaric acid, p-coumaric acid]	8.52%

Same assay, conditions: post-preparation samples, medium QC, 12 h at 4 °C, n = 6

Compound	Stability (RE%) Post-Preparative
COc1cc(/C=C/C(=O)O)ccc1O [Ferulic acid, ferulic acid]	4.84%
COc1cc(C(=O)O)cc(OC)c1O [Syringic acid, syringic acid]	−7.64%
COc1cc(C(=O)O)ccc1O [Vanillic acid, vanillic acid]	−6.34%
O=C(O)/C=C/c1ccc(O)cc1 [p-Coumaric acid, p-coumaric acid]	11.50%

Assay: Pharmacokinetic study of seven phenolic acids in rat plasma after oral administration of E. purpurea extract (UHPLC-ESI-MS/MS)
Format: in vivo
Conditions: Sprague-Dawley, rat, male SD rats, oral E. purpurea extract 10 g/kg, n = 12, mean ± SD
Protocol: Twelve male Sprague-Dawley (SD) rats (body weight 220 ± 20 g) were provided by Heilongjiang University of Chinese Medicine (Harbin, China). Each rat fasted 12 h before administration, with free drinking during the experiment. Blood samples were obtained from rats after oral administration of the extract of E. purpurea with a dose of 10 g/kg body weight. Blood samples (0.25 mL) of the retinal venous plexus were taken at 0.083, 0.25, 0.75, 1.0, 1.5, 2, 3, 4, 6, 8, 12, 24 and 36 h, then moved immediately into a 0.5 mL centrifuge tube that was spread with heparin at each time point. Meanwhile, the animal blood was centrifuged at 13,000 rpm for 5 min at 4 °C. The plasma was frozen in a −20 °C refrigerator in case of deterioration.
First, the frozen plasma was thawed at room temperature and then a liquid–liquid extraction (LLE) method was utilized. Then, a 100 μL aliquot of each plasma sample was removed except for the calibration standards which was mixed with 10 μL IS into a 10 mL glass tube. We continued by adding 100 μL methanol and 100 μL 30% formic acid, vortex-mixing for 1 min, then extracted 3 mL ethyl acetate, vortex-mixing for 3 min, centrifuged for 5 min (3500 rpm), and transferred the upper organic layer into a new tube. The layer of ethyl acetate was dried with a stream of nitrogen, the dry residue was dissolved with a 100 μL mobile phase, vortexed for 2 min and samples were filtered by a 0.22 μm microporous membrane. A 10 μL aliquot was injected into the UHPLC-ESI-MS/MS system.
The rat plasma concentration-time curves of seven compounds were plotted. After oral administration of E. purpurea extract in twelve rats, the maximum drug concentration in rat plasma (Cmax) and the time to reach maximum drug concentration (Tmax) were directly obtained from concentration-time data. The elimination rate constant (Ke) was calculated by linear regression of the terminal points in a semi-log plot of the plasma concentration against time. The elimination half-life (T1/2) was calculated by the formula T1/2 = 0.693/Ke. Other pharmacokinetic parameters including the area under the concentration-time curve (AUC0→t), and the area under the plasma concentration-time curve to time infinity (AUC0→∞) were calculated using non-compartmental pharmacokinetics analysis.

Compound	AUC(0-inf)	AUC(0-t)	Cmax	Tmax	half-life
COc1cc(/C=C/C(=O)O)ccc1O [Ferulic acid, ferulic acid]	6020 ± 498 ng·h/mL	5620 ± 453 ng·h/mL	359 ± 43.8 ng/mL	8 h	8.48 ± 0.71 h
COc1cc(C(=O)O)cc(OC)c1O [Syringic acid, syringic acid]	1950 ± 164 ng·h/mL	1650 ± 133 ng·h/mL	122 ± 16.4 ng/mL	1.54 ± 0.14 h	13.2 ± 1.66 h
COc1cc(C(=O)O)ccc1O [Vanillic acid, vanillic acid]	3440 ± 234 ng·h/mL	3140 ± 264 ng·h/mL	228 ± 11.9 ng/mL	0.75 h	
O=C(O)/C=C/c1ccc(O)cc1 [p-Coumaric acid, p-coumaric acid]	3440 ± 218 ng·h/mL	3130 ± 156 ng·h/mL	293 ± 16.4 ng/mL	0.75 h	9.32 ± 1.29 h

Same assay, conditions: male SD rats, oral E. purpurea extract 10 g/kg, n = 12, mean ± SD

Compound	T1/2
COc1cc(C(=O)O)ccc1O [Vanillic acid, vanillic acid]	8.89 ± 1.12 h

Assay: Stability of the analytes in rat plasma QC samples under different storage conditions
Format: physicochemical
Conditions: high QC, 4 h at room temperature, n = 6

Compound	Stability (RE%) Short-Term
COc1cc(/C=C/C(=O)O)ccc1O [Ferulic acid, ferulic acid]	−8.77%
COc1cc(C(=O)O)cc(OC)c1O [Syringic acid, syringic acid]	−5.73%
COc1cc(C(=O)O)ccc1O [Vanillic acid, vanillic acid]	1.59%
O=C(O)/C=C/c1ccc(O)cc1 [p-Coumaric acid, p-coumaric acid]	−4.81%

Same assay, conditions: high QC, three freeze-thaw cycles (−20 °C / ambient), n = 6

Compound	Stability (RE%) Freeze-Thaw
COc1cc(/C=C/C(=O)O)ccc1O [Ferulic acid, ferulic acid]	−13.12%
COc1cc(C(=O)O)cc(OC)c1O [Syringic acid, syringic acid]	−2.61%
COc1cc(C(=O)O)ccc1O [Vanillic acid, vanillic acid]	5.28%
O=C(O)/C=C/c1ccc(O)cc1 [p-Coumaric acid, p-coumaric acid]	−8.78%

Same assay, conditions: high QC, −20 °C for 2 weeks, n = 6

Compound	Stability (RE%) Long-Term
COc1cc(/C=C/C(=O)O)ccc1O [Ferulic acid, ferulic acid]	−1.89%
COc1cc(C(=O)O)cc(OC)c1O [Syringic acid, syringic acid]	−1.30%
COc1cc(C(=O)O)ccc1O [Vanillic acid, vanillic acid]	−0.32%
O=C(O)/C=C/c1ccc(O)cc1 [p-Coumaric acid, p-coumaric acid]	−5.30%

Same assay, conditions: low QC, 4 h at room temperature, n = 6

Compound	Stability (RE%) Short-Term
COc1cc(/C=C/C(=O)O)ccc1O [Ferulic acid, ferulic acid]	−4.21%
COc1cc(C(=O)O)cc(OC)c1O [Syringic acid, syringic acid]	−1.95%
COc1cc(C(=O)O)ccc1O [Vanillic acid, vanillic acid]	2.24%
O=C(O)/C=C/c1ccc(O)cc1 [p-Coumaric acid, p-coumaric acid]	−3.59%

Same assay, conditions: low QC, three freeze-thaw cycles (−20 °C / ambient), n = 6

Compound	Stability (RE%) Freeze-Thaw
COc1cc(/C=C/C(=O)O)ccc1O [Ferulic acid, ferulic acid]	−7.10%
COc1cc(C(=O)O)cc(OC)c1O [Syringic acid, syringic acid]	−3.75%
COc1cc(C(=O)O)ccc1O [Vanillic acid, vanillic acid]	−6.56%
O=C(O)/C=C/c1ccc(O)cc1 [p-Coumaric acid, p-coumaric acid]	−7.57%

Same assay, conditions: low QC, −20 °C for 2 weeks, n = 6

Compound	Stability (RE%) Long-Term
COc1cc(/C=C/C(=O)O)ccc1O [Ferulic acid, ferulic acid]	7.93%
COc1cc(C(=O)O)cc(OC)c1O [Syringic acid, syringic acid]	−0.66%
COc1cc(C(=O)O)ccc1O [Vanillic acid, vanillic acid]	2.91%
O=C(O)/C=C/c1ccc(O)cc1 [p-Coumaric acid, p-coumaric acid]	−6.75%

Same assay, conditions: medium QC, 4 h at room temperature, n = 6

Compound	Stability (RE%) Short-Term
COc1cc(/C=C/C(=O)O)ccc1O [Ferulic acid, ferulic acid]	4.61%
COc1cc(C(=O)O)cc(OC)c1O [Syringic acid, syringic acid]	−1.50%
COc1cc(C(=O)O)ccc1O [Vanillic acid, vanillic acid]	−0.67%
O=C(O)/C=C/c1ccc(O)cc1 [p-Coumaric acid, p-coumaric acid]	1.57%

Same assay, conditions: medium QC, three freeze-thaw cycles (−20 °C / ambient), n = 6

Compound	Stability (RE%) Freeze-Thaw
COc1cc(/C=C/C(=O)O)ccc1O [Ferulic acid, ferulic acid]	−3.80%
COc1cc(C(=O)O)cc(OC)c1O [Syringic acid, syringic acid]	4.48%
COc1cc(C(=O)O)ccc1O [Vanillic acid, vanillic acid]	5.74%
O=C(O)/C=C/c1ccc(O)cc1 [p-Coumaric acid, p-coumaric acid]	−0.82%

Same assay, conditions: medium QC, −20 °C for 2 weeks, n = 6

Compound	Stability (RE%) Long-Term
COc1cc(/C=C/C(=O)O)ccc1O [Ferulic acid, ferulic acid]	6.80%
COc1cc(C(=O)O)cc(OC)c1O [Syringic acid, syringic acid]	−0.79%
COc1cc(C(=O)O)ccc1O [Vanillic acid, vanillic acid]	−0.37%
O=C(O)/C=C/c1ccc(O)cc1 [p-Coumaric acid, p-coumaric acid]	−5.40%
